For the data set, the system named is Yap1 mRNA. The data set can be described thus: Antisense inhibition of human Yap1 in A-431 cells by cEt gapmers, single dose (Example 2, RTS4814). It is filed as cell-based. An outline of the steps:
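Read-out is Yap1 mRNA as percent of untreated cells, by real-time RT-PCR (probe set RTS4814) normalized to total RNA via RIBOGREEN. Cells were A-431 dosed with 2,000 nM gapmer without transfection for approximately 48 hours.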

The mark [1] stands for this setting: A-431 cells, 5,000 cells per well, free uptake, 2,000 nM modified oligonucleotide, approx. 48 hours, RTS4814, normalized to RIBOGREEN, Table 4, asterisk (*) = targets amplicon region of primer probe set.
[2] abbreviates: Table 32, Yap1 mRNA, percent of untreated control, 3-10-3 cEt gapmers targeting SEQ ID NO.: 1, and 2.
Setting [3] is: Table 18, A-431 cells, 5,000 cells per well, free uptake, 2,000 nM modified oligonucleotide, approx. 48 hours, RTS4814, normalized to RIBOGREEN, Yap1 mRNA as percent of untreated control.
The mark [4] stands for this setting: Table 23, Yap1 mRNA as percent of untreated control, 3-10-3 cEt gapmers, single dose.
Where [5] appears, read: Table 25, Yap1 mRNA as percent of untreated control, 3-10-3 cEt gapmers targeting SEQ ID NO.: 1, and 2.
The mark [6] stands for this setting: Table 21, Yap1 mRNA, percent of untreated control, 3-10-3 cEt gapmers targeting SEQ ID NO.: 1 and 2.

Strand notation (5' to 3'): a small letter for the sugar, then the base; units joined by * are phosphorothioate-linked, units joined directly phosphodiester-linked; [ ] holds rarer units or linkages, { } end groups; capitals alone tell only the bases. k = constrained ethyl (cEt); [5mC] = 5-methylcytosine; d = 2'-deoxy (DNA)

“716577 (kT*k[5mC]*kT*dG*dT*d[5mC]*dA*dG*dT*dT*dA*dT*d[5mC]*k[5mC]*kT*kA; antisense) [Compound 716577]”: the “YAP1 (% UTC)” value under setting [1] is 21 % UTC.

With “1075921 (antisense kG*kA*kA*dA*dG*dA*dA*dA*dG*d[5mC]*dT*dG*d[5mC]*kG*k[5mC]*kA) [compound 1075921]”, the “YAP1 (% UTC)” value (Yap1 mRNA as percent of untreated control, A-431 cells, 3-10-3 cEt gapmers targeting SEQ ID NO.: 1, and 2, Table 31) is recorded as 93 % UTC.

On to “1075890 (antisense kG*kA*kT*dT*dA*dA*dA*dA*dG*dT*dA*dG*dG*k[5mC]*k[5mC]*k[5mC]) [compound 1075890]”, for which the “YAP1 (% UTC)” value under setting [2] was determined as 92 % UTC.

In the case of “1074244 (antisense k[5mC]*kT*k[5mC]*dT*dG*dA*d[5mC]*d[5mC]*dA*dG*dA*dA*dG*kA*kT*kG) [Compound 1074244]”, the “YAP1 (% UTC)” value under setting [3] was 95 % UTC.

Regarding “1074825 (kA*k[5mC]*k[5mC]*dT*dG*dA*dG*d[5mC]*dA*d[5mC]*dT*d[5mC]*dA*kT*kT*kT; antisense) [Compound 1074825]”, the “YAP1 (% UTC)” value under setting [4] is on record as 36 % UTC.

With “1074404 (antisense kG*kG*k[5mC]*dT*dT*dA*dT*dG*dG*dA*dA*dA*dT*kT*kT*k[5mC]) [Compound 1074404]”, the “YAP1 (% UTC)” value under setting [3] is recorded as 16 % UTC.

As for “1075888 (antisense kA*k[5mC]*kT*dT*dA*dA*dA*d[5mC]*dT*dT*dG*dA*dG*kG*kG*kA) [compound 1075888]”, the “YAP1 (% UTC)” value (Yap1 mRNA as percent of untreated control, A-431 cells, 3-10-3 cEt gapmers targeting SEQ ID NO.: 1, and 2, Table 30) was 22 % UTC.

Regarding “716365 (kT*k[5mC]*kT*dG*dA*dT*dG*d[5mC]*d[5mC]*d[5mC]*dG*dG*d[5mC]*kG*kG*kG; antisense) [Compound 716365]”, the “YAP1 (% UTC)” value (Table 5, A-431 cells, 5,000 cells per well, free uptake, 2,000 nM modified oligonucleotide, approx. 48 hours, RTS4814, normalized to RIBOGREEN, Yap1 mRNA relative to untreated control cells) was 83 % UTC.

On to “1076139 (k[5mC]*kG*kA*dA*dA*dA*dA*dA*dG*d[5mC]*d[5mC]*dA*dA*k[5mC]*kA*kA; antisense) [Compound 1076139]”, for which the “YAP1 (% UTC)” value under setting [5] is on record as 18 % UTC.

For “1075972 (kT*k[5mC]*kA*d[5mC]*dA*dA*dG*dG*dG*d[5mC]*dT*dA*dA*kT*kT*k[5mC]; antisense) [Compound 1075972]”, under setting [3], the “YAP1 (% UTC)” value was 22 % UTC.

On to “1076101 (kA*kA*kA*dT*dA*dA*dG*dG*dG*dA*d[5mC]*dT*dA*k[5mC]*kT*kT; antisense) [Compound 1076101]”, for which the “YAP1 (% UTC)” value (Table 19, A-431 cells, 5,000 cells per well, free uptake, 2,000 nM modified oligonucleotide, approx. 48 hours, RTS4814, normalized to RIBOGREEN, Yap1 mRNA as percent of untreated control) was found to be 71 % UTC.

For the substance “1075922 (antisense kG*k[5mC]*k[5mC]*d[5mC]*dA*dA*dA*dA*dT*dA*dG*dG*dA*kT*kA*k[5mC]) [compound 1075922]”, under setting [2], the “YAP1 (% UTC)” value came to 60 % UTC.

On to “1076039 (kG*kA*kT*dT*dA*dG*dA*dG*d[5mC]*dT*dG*dT*dA*kT*kT*k[5mC]; antisense) [Compound 1076039]”, for which the “YAP1 (% UTC)” value under setting [6] was 29 % UTC.

Turning to “1074279 (antisense kG*kT*k[5mC]*dA*dA*dG*d[5mC]*d[5mC]*dT*dT*dG*dG*dG*kT*k[5mC]*kT) [Compound 1074279]”, the “YAP1 (% UTC)” value under setting [6] is recorded as 13 % UTC.

As to “1074282 (antisense k[5mC]*kG*kA*dG*dG*dG*dT*d[5mC]*dA*dA*dG*d[5mC]*d[5mC]*kT*kT*kG) [Compound 1074282]”, the “YAP1 (% UTC)” value (Table 24, Yap1 mRNA as percent of untreated control, 3-10-3 cEt gapmers targeting SEQ ID NO.: 1, and 2) was determined as 83 % UTC.

Turning to “716448 (k[5mC]*k[5mC]*kG*dA*d[5mC]*dA*dA*dA*dA*d[5mC]*d[5mC]*dA*dA*k[5mC]*k[5mC]*kA; antisense) [Compound 716448]”, the “YAP1 (% UTC)” value under setting [1] is given as 62 % UTC.

As for “1075851 (kG*k[5mC]*k[5mC]*dG*dA*dA*dT*dA*dT*dG*dG*dG*dA*kA*kA*kA; antisense) [Compound 1075851]”, under setting [5], the “YAP1 (% UTC)” value was 70 % UTC.

As for “1075241 (antisense kG*kA*kT*dA*dA*dT*dT*dA*d[5mC]*dT*dA*dA*d[5mC]*kT*kG*kA) [Compound 1075241]”, the “YAP1 (% UTC)” value under setting [4] was 31 % UTC.

On to “716505 (antisense kG*kA*kT*dT*dT*dA*dA*dT*d[5mC]*dT*dT*dT*d[5mC]*kT*kG*k[5mC]) [Compound 716505]”, for which the “YAP1 (% UTC)” value under setting [1] was 35 % UTC.

With “1074790 (k[5mC]*kA*kT*d[5mC]*dA*dA*d[5mC]*d[5mC]*dA*dT*dA*dA*dG*kT*kA*kG; antisense) [Compound 1074790]”, the “YAP1 (% UTC)” value (Table 20, Yap1 mRNA, percent of untreated control, 3-10-3 cEt gapmers targeting SEQ ID NO.: 1 and 2) is 28 % UTC.

Source of the values: patent US11214803B2, “Modulators of YAP1 expression” (Ionis Pharmaceuticals, Inc., priority 2019, dated 2022).
